Assay results taken from patent US7435834B2, “2-thia-dibenzoazulenes as inhibitors of tumour necrosis factor production and intermediates for the preparation thereof” (GlaxoSmithKline Istrazivacki Center Zagreb D.O.O., priority 2002, dated 2008).

Test system: TNF-α and IL-1 secretion
Test: investigated assays, not specified which (TNF-α/IL-1 secretion in human PBMC and mouse peritoneal macrophages in vitro, LPS-induced TNF-α/IL-1 secretion in mice, writhing assay, LPS-induced shock in mice)
Settings: assays not named; active means: IC50 20 μM or lower (human PBMC), IC50 10 μM or lower (mouse macrophages), 30% or more TNF-α inhibition at 10 mg/kg, analgetic activity as acetylsalicylic acid or better, survival 40% or more at 30 mg/kg
Method: The inhibitory action of the present compounds upon TNF-α and IL-1 secretion was determined by the following in vitro and in vivo experiments:
Determination of TNF-α and IL-1 Secretion in Human Peripheral Blood Mononuclear Cells in vitro
Human peripheral blood mononuclear cells (PBMC) were prepared from heparinized whole blood after separating PBMC on Ficoll-Paque™Plus (Amersham-Pharmacia). […] The IL-1 level was determined in an assay under the same conditions and with the same number of cells and the same concentration of stimuli stimulus by ELISA procedure (R&D Systems). The percentage of inhibition of TNF-α or IL-1 production was calculated by the equation: % inhibition=[1−(TS−NC)/(PC−NC)]*100. […]
In order to obtain peritoneal macrophages, Balb/C mouse strain males, age 8 to 12 weeks, were injected i.p. with 300 μg of zymosan (SIGMA) dissolved in a phosphate buffer (PBS) in a total volume of 0.1 ml/mouse. […] The TNF-α level in the cell supernatant was determined by ELISA procedure (R&D Systems, Biosource). The IL-1 level was determined in an assay identical to the assay for TNF-α by ELISA procedure (R&D Systems). The percentage of inhibition of TNF-α or IL-1 production was calculated by the equation: % inhibition=[1−(TS−NC)/(PC−NC)]*100. […]

O=Cc1scc2c1-c1ccccc1Sc1ccccc1-2 [Example 14, 2,8-Dithia-dibenzo[e,h]azulene-1-carbaldehyde]
activity in investigated assays: activity in at least two investigated assays
